Results published in ChEMBL document CHEMBL5550185, “Targeting hTERT Promoter G-Quadruplex DNA Structures with Small-Molecule Ligand to Downregulate hTERT Expression for Triple-Negative Breast Cancer Therapy” (J Med Chem, 2024).
Active and inactive are the calls of the source. No cut-off for these calls is given here.

Key:
[1] = Upregulation of SKP2 gene expression in human MDA-MB-231 cells assessed as fold change at 1 uM measured after 48 hrs by RNA-seq analysis relative to control; assay type: functional
[2] = Toxicity in female Balb/c nude mouse xenografted with human MDA-MB-231 cells assessed as signs of pain at 2 to 5 mg/kg, iv administered via tail vein every 2 days for 16 days; assay type: organism-based; conditions: in vivo, 384 h, dose 2-5 mg/kg, time 16 day
MDA-MB-231 [3] = assay: Downregulation of ND3 gene expression in human MDA-MB-231 cells at 1 uM measured after 48 hrs by RNA-seq analysis; assay type: functional, cell-based
[4] = Toxicity in female Balb/c nude mouse xenografted with human MDA-MB-231 cells assessed as pathological changes in kidney at 2 to 5 mg/kg, iv administered via tail vein every 2 days for 16 days by H and E staining based analysis; assay type: organism-based; conditions: in vivo, 384 h, dose 2-5 mg/kg, time 16 day
[5] = Upregulation of SAT2 gene expression in human MDA-MB-231 cells assessed as fold change at 1 uM measured after 48 hrs by RNA-seq analysis relative to control; assay type: functional
Quadruplex DNA [6] = assay: Binding affinity to hTERT G4 DNA assessed as dissociation constant by ITC analysis; assay type: nucleic-acid assay, Homo sapiens
MDA-MB-231 [7] = assay: Downregulation of LC3-I protein expression in human MDA-MB-231 cells at 0 to 1.5 uM measured after 48 hrs by Western blot analysis; assay type: functional, cell-based; conditions: dose 0-1.5 µM
U2OS = assay: Cytotoxicity against alternative lengthening of telomere-positive human U2OS cells assessed as inhibition of cell growth incubated for 48 hrs by MTT assay; assay type: functional, cell-based
[8] = Toxicity in female Balb/c nude mouse xenografted with human MDA-MB-231 cells assessed as change in […] level at 2 to 5 mg/kg, iv administered via tail vein every 2 days for 16 days; assay type: organism-based; conditions: in vivo, 384 h, dose 2-5 mg/kg, time 16 day
HeLa = assay: Cytotoxicity against telomerase-positive human HeLa cells assessed as inhibition of cell growth incubated for 48 hrs by MTT assay; assay type: functional, cell-based
Quadruplex DNA [9] = assay: Binding affinity to Bcl-2 G4 DNA (unknown origin) assessed as thermal stability by measuring change in melting temperature at 400 uM […]; assay type: nucleic-acid assay
[10] = Upregulation of FTL gene expression in human MDA-MB-231 cells assessed as fold change at 1 uM measured after 48 hrs by RNA-seq analysis relative to control; assay type: functional
[11] = Upregulation of TNFSF10 gene expression in human MDA-MB-231 cells assessed as fold change at 1 uM measured after 48 hrs by RNA-seq analysis relative to control; assay type: functional
MDA-MB-231 [12] = assay: Induction of mitochondrial dysfunction in human MDA-MB-231 cells assessed as downregulation of mitochondrial respiratory complex IV-COX II expression incubated for 48 hrs by Western blot analysis; assay type: functional, cell-based; conditions: dose 0-1.5 µM
MDA-MB-231 [13] = assay: Induction of oxidative stress in human MDA-MB-231 cells assessed as cellular DNA fragmentation at 0 to 1.5 uM measured after 48 hrs by comet assay; assay type: functional, cell-based; conditions: dose 0-1.5 µM
MDA-MB-231 [14] = assay: Induction of senescence in human MDA-MB-231 cells at 0 to 1.5 uM measured after 48 hrs by SA-beta-gal assay; assay type: functional, cell-based; conditions: dose 0-1.5 µM
[15] = Toxicity in female Balb/c nude mouse xenografted with human MDA-MB-231 cells assessed as change in creatinine level at 2 to 5 mg/kg, iv administered via tail vein every 2 days for 16 days; assay type: organism-based; conditions: in vivo, 384 h, dose 2-5 mg/kg, time 16 day
[16] = Toxicity in female Balb/c nude mouse xenografted with human MDA-MB-231 cells assessed as change in ALT level at 2 to 5 mg/kg, iv administered via tail vein every 2 days for 16 days; assay type: organism-based; conditions: in vivo, 384 h, dose 2-5 mg/kg, time 16 day
MDA-MB-231 [17] = assay: Disruption of energy metabolism in human MDA-MB-231 cells assessed as reduction in cellular energy production by measuring reduction in ATP production at 0 to 1.5 uM measured after 2 hrs by Seahorse XF24 analyzer; assay type: functional, cell-based; conditions: dose 0-1.5 µM
Quadruplex DNA [18] = assay: Binding affinity to Bcl-2 G4 DNA (unknown origin) assessed as change in gibbs free energy at 400 uM by ITC analysis; assay type: nucleic-acid assay
MDA-MB-231 [19] = assay: Induction of ferroptosis in human MDA-MB-231 cells assessed as disruption of iron metabolism by measuring increase in bright yellow fluorescent spots measured after 48 hrs by FerroOrange/Hoechst 33342 staining based confocal microscopic analysis; assay type: functional, cell-based; conditions: dose 0-1.5 µM
[20] = Cytotoxicity against human HK-2 cells assessed as inhibition of cell growth incubated for 48 hrs by MTT assay; assay type: toxicity, cell-based
MDA-MB-231 [21] = assay: Induction of autophagy in human MDA-MB-231 cells assessed as upregulation of BNIP3L/Nix protein expression at 0 to 1.5 uM measured after 48 hrs by Western blot analysis; assay type: functional, cell-based; conditions: dose 0-1.5 µM
Quadruplex DNA [22] = assay: Binding affinity to Telo21 G4 DNA (unknown origin) assessed as change in gibbs free energy at 400 uM by ITC analysis; assay type: nucleic-acid assay
MDA-MB-231 [23] = assay: Induction of telomere dysfunction in human MDA-MB-231 cells assessed as cellular senescence at 0.2 uM measured after 10 days by SA-beta-gal staining based analysis; assay type: functional, cell-based; conditions: time 10.0 day
Quadruplex DNA [24] = assay: Binding affinity to CKIT-2 G4 DNA (unknown origin) assessed as change in enthalpy at 400 uM by ITC analysis; assay type: nucleic-acid assay
[25] = Selectivity ratio of binding affinity to human TERT G4 DNA to binding affinity to Ckit-2 G4 DNA (unknown origin)
MDA-MB-231 [26] = assay: Downregulation of CTCF mRNA expression in human MDA-MB-231 cells at 0 to 1.5 uM measured after 48 hrs by qRT-PCR analysis; assay type: functional, cell-based; conditions: dose 0-1.5 µM
[27] = Upregulation of IRS1 gene expression in human MDA-MB-231 cells assessed as fold change at 1 uM measured after 48 hrs by RNA-seq analysis relative to control; assay type: functional
Quadruplex DNA [28] = assay: Binding affinity to c-MYC Pu27 G4 DNA (unknown origin) assessed as thermal stability by measuring change in melting temperature at 400 uM […]; assay type: nucleic-acid assay
MDA-MB-231 [29] = assay: Inhibition of cell migration in human MDA-MB-231 cells at 0 to 1.5 uM measured after 48 hrs by crystal violet staining based microscopic analysis; assay type: functional; conditions: dose 0-1.5 µM
MDA-MB-231 [30] = assay: Downregulation of ND2 gene expression in human MDA-MB-231 cells at 1 uM measured after 48 hrs by RNA-seq analysis; assay type: functional, cell-based
MDA-MB-231 [31] = assay: Inhibition of hTERT expression in human MDA-MB-231 cells assessed as reduction in pink foci in cytoplasm at 0.5 uM incubated for 48 hrs in presence of TBHP at 200 uM by immunofluorescence analysis; assay type: functional, cell-based
MDA-MB-231 [32] = assay: Induction of ferroptosis in human MDA-MB-231 cells assessed as reduction in GPX4 protein expression at 0 to 1.5 uM measured after 48 hrs by Western blot analysis; assay type: functional, cell-based; conditions: dose 0-1.5 µM
[33] = Selectivity ratio of binding affinity to human TERT G4 DNA to binding affinity to Telo21 G4 DNA (unknown origin)
MDA-MB-231 [34] = assay: Antitumor activity against human MDA-MB-231 cells xenografted in iv dosed female Balb/c mouse assessed as nuclear fragmentation in tumor administered via tail vein every 2 days for 16 days by H and E staining based analysis; assay type: functional, organism-based; conditions: dose 2-5 mg/kg, time 16.0 day
[35] = Upregulation of PLK2 gene expression in human MDA-MB-231 cells assessed as fold change at 1 uM measured after 48 hrs by RNA-seq analysis relative to control; assay type: functional

Kd (Quadruplex DNA [6]): 1.14 µM | ΔTm (Quadruplex DNA [9]): 6.4 °C | deltaG (Quadruplex DNA [18]): -7.43 kcal/mol | deltaG (Quadruplex DNA [22]): -7.49 kcal/mol | deltaH (Quadruplex DNA [24]): -1.59 kcal/mol | Selectivity ratio [25]: 2 | ΔTm (Quadruplex DNA [28]): 2.59 °C | Selectivity ratio [33]: 2
SMILES: C[n+]1c(/C=C/c2c[nH]c3ccccc23)cc(/C=C2\Sc3ccccc3N2CCCN2CCC(C(F)(F)F)CC2)c2ccccc21.[I-]
fold change (FC) [1]: >2 | Activity [2]: Non-Toxic | Activity (MDA-MB-231 [3]): Active | Activity [4]: Non-Toxic | fold change (FC) [5]: >2 | Activity (MDA-MB-231 [7]): Active | IC50 (U2OS): 3.9 µM | Activity [8]: Non-Toxic | IC50 (HeLa): 2.6 µM | fold change (FC) [10]: >2 | fold change (FC) [11]: >2 | Activity (MDA-MB-231 [12]): Dose-Dependent Effect | Activity (MDA-MB-231 [13]): Active | Activity (MDA-MB-231 [14]): Active | Activity [15]: Non-Toxic | Activity [16]: Non-Toxic | Activity (MDA-MB-231 [17]): Active | Activity (MDA-MB-231 [19]): Dose-Dependent Effect | IC50 at 48 h [20]: 9.4 µM | Activity (MDA-MB-231 [21]): Active | Activity (MDA-MB-231 [23]): Active | Activity (MDA-MB-231 [26]): inactive | fold change (FC) [27]: >2 | inhibition (MDA-MB-231 [29]): Active | Activity (MDA-MB-231 [30]): Active | inhibition (MDA-MB-231 [31]): Active | Activity (MDA-MB-231 [32]): Active | Activity (MDA-MB-231 [34]): Dose-Dependent Effect | fold change (FC) [35]: >2
